Measurements as given in patent publication US5157052A, “Method for inhibiting IgE production” (priority 1990, dated 1992).

Test system: Thy 1
Test: Splenocyte cell surface density/distribution (FACS): Thy 1
Format: in vivo, mouse (Balb/c female)
Procedure: Another (Group B) is injected with 20 μg (±) methyl 11α,16-dihydroxy-16-methyl-9-oxoprosta-5Z,13E-dien-1-oate as in Example 13. […] A 3 cm incision is made with a scalpel above the left hip, and the spleen is cut free from adjoining tissue and placed in a 100 mn plastic culture dish containing 10 ml PBS. The splenic cells are then made into a suspension, by rubbing the spleens between the rough, frosted ends of microscope slides repeatedly until the only remaining particulate matter is connective tissue. Cells are transferred to a 15 ml conical polystyrene tube and centrifuged in a centrifuge at 1200 rpm for 5 minutes. The supernatant is discarded by aspiration and the cell pellet is resuspended in 10 ml PBS, then centrifuged at 1200 rpm for 5 minutes. The supernatant is aspirated and the cell pellet is resuspended in 15 mM Tris, 140 mM Ammonium Chloride, to lyse red blood cells. After incubating at room temperature for 10 minutes the cell suspension is centrifuged at 1200 rpm for 10 minutes. The supernatant is discarded and the cell pellet is resuspended in 10 ml FACS Buffer (PBS containing 0.1% BSA and 0.1% Sodium Azide). The cell suspension is filtered through sterile glass wool plugged in the top of a pasteur pipet. Cells in the flow through are counted using a hemacytometer, then the cell suspension is centrifuged at 1200 rpm for 5 minutes. The supernatant is discarded and the cell pellet is resuspended in a volume of FACS Buffer that will yield 4×10^7 cells/ml. 10 μl (4×10^5 cells) is added to each well of a 96-well V-bottom plate. 25 μl of diluted monoclonal antibody directed against splenocyte cell surface proteins is added to each well: Major Histocompatability Complex (MHC) Class II (M5114, ATCC, Rockville Md.), MHC Class I (M1/42, ATCC), Anti-IgD (JA12.5, ATCC, Rockville, Md.), Thymocyte (Thy)-1 (JIJ, ATCC), B220 (14.8, ATCC), Kappa light chain (187, ATCC), IL-2 Receptor (7D4, ATCC), Lyt-1 (7.313, ATCC) and CD23 (biotinylated B3B4) and incubated on ice for 30 minutes. 100 μl 10% BSA 0.1% sodium azide is added to each well, then the plates are centrifuged at 1200 rpm for 10 minutes. The liquid is removed by aspiration and the cell pellets are resuspended in 100 μl FACS Buffer, and centrifuged at 1200 rpm for 5 minutes. […] Samples are transferred to individual tubes and 10,000 cells are analyzed. Using the Lysis software (Becton Dickinson, Mountain View, Calif.) the mean channel log fluorescence and percent positive cells are determined for the entire cell population. […]

## CCCCC(C)(O)C/C=C/[C@H]1[C@H](O)CC(=O)[C@@H]1C/C=C\CCCC(=O)OC (mixture of isomers) [(±) methyl 11α,16-dihydroxy-16-methyl-9-oxoprosta-5Z,13E-dien-1-oate]
anti-IgD stimulated mice, 20 μg days 3 and 4, day 7 (PBS 14.3)
  Percentage Positive Cells: 23 ± 10%
anti-IgD stimulated mice, 20 μg days 3 and 4, day 7 (PBS 97)
  Mean Channel Log Fluorescence: 98 ± 0
Unstimulated mice, 20 μg (PBS 9.3)
  Percentage Positive Cells: 25.4 ± 3%
Unstimulated mice, 20 μg (PBS 91)
  Mean Channel Log Fluorescence: 92 ± 3
